Reference: PubChem BioAssay (NCI)
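96-well plates; 48 h exposure; 5 concentrations. Endpoints by linear interpolation between flanking doses. Not reached: highest tested concentration assigned. GI50 marks 50% less growth. TGI: concentration producing complete growth inhibition.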

Legend:
Experiment in all cases: growth of human tumour cells (NCI), 48 h
SK-MEL-5 melanoma = system: SK-MEL-5 melanoma
A498 renal = system: A498 renal
RPMI-8226 leukemia = system: RPMI-8226 leukemia
SK-OV-3 ovarian = system: SK-OV-3 ovarian
UACC-257 melanoma = system: UACC-257 melanoma
MDA-MB-435 = system: MDA-MB-435
SK-MEL-2 melanoma = system: SK-MEL-2 melanoma
MALME-3M melanoma = system: MALME-3M melanoma
SK-MEL-28 melanoma = system: SK-MEL-28 melanoma
HT29 colon = system: HT29 colon
KM12 colon = system: KM12 colon
TK-10 renal = system: TK-10 renal
OVCAR-5 ovarian = system: OVCAR-5 ovarian
HOP-92 NSCLC = system: HOP-92 NSCLC
RXF 393 renal = system: RXF 393 renal
HS 578T breast = system: HS 578T breast
IGROV1 ovarian = system: IGROV1 ovarian
UACC-62 melanoma = system: UACC-62 melanoma
CAKI-1 renal = system: CAKI-1 renal
SF-268 CNS = system: SF-268 CNS
SR leukemia = system: SR leukemia
SF-295 CNS = system: SF-295 CNS
NCI-H460 lung = system: NCI-H460 lung
A549 NSCLC = system: A549 NSCLC
SNB-75 CNS = system: SNB-75 CNS
HL-60(TB) leukemia = system: HL-60(TB) leukemia
MOLT-4 leukemia = system: MOLT-4 leukemia
U251 CNS = system: U251 CNS
OVCAR-4 ovarian = system: OVCAR-4 ovarian
SF-539 CNS = system: SF-539 CNS
CCRF-CEM leukemia = system: CCRF-CEM leukemia
SNB-19 CNS = system: SNB-19 CNS
SN12C renal = system: SN12C renal
UO-31 renal = system: UO-31 renal
SW-620 colon = system: SW-620 colon
MDA-MB-231 breast = system: MDA-MB-231 breast
ACHN renal = system: ACHN renal
COLO 205 colon = system: COLO 205 colon
PC-3 prostate = system: PC-3 prostate
NCI-H522 lung = system: NCI-H522 lung

## COc1ccc(/C=N/Nc2ccnc3cc(Cl)ccc23)cc1Cl
SK-MEL-5 melanoma
  GI50: 1770 nM
  TGI: 3210 nM
A498 renal
  GI50: 1720 nM
  TGI: 3220 nM
RPMI-8226 leukemia
  GI50: 2200 nM
  TGI: 5240 nM
SK-OV-3 ovarian
  GI50: 1820 nM
  TGI: 3270 nM
UACC-257 melanoma
  GI50: 1690 nM
  TGI: 3290 nM
MDA-MB-435
  GI50: 1790 nM
  TGI: 3390 nM
SK-MEL-2 melanoma
  GI50: 1790 nM
  TGI: 3330 nM
MALME-3M melanoma
  GI50: 1900 nM
  TGI: 3540 nM
SK-MEL-28 melanoma
  GI50: 1750 nM
  TGI: 3210 nM
HT29 colon
  GI50: 1530 nM
  TGI: 3010 nM
KM12 colon
  GI50: 2080 nM
  TGI: 4320 nM
TK-10 renal
  GI50: 1740 nM
  TGI: 3120 nM
OVCAR-5 ovarian
  GI50: 1850 nM
  TGI: 3490 nM
HOP-92 NSCLC
  GI50: 1380 nM
  TGI: 2950 nM
RXF 393 renal
  GI50: 1750 nM
  TGI: 3210 nM
HS 578T breast
  GI50: 1990 nM
  TGI: 4280 nM
IGROV1 ovarian
  GI50: 1910 nM
  TGI: 3710 nM
UACC-62 melanoma
  GI50: 1760 nM
  TGI: 3270 nM
CAKI-1 renal
  GI50: 1680 nM
  TGI: 3100 nM
SF-268 CNS
  GI50: 1900 nM
  TGI: 3690 nM
SR leukemia
  GI50: 707 nM
  TGI: 5510 nM
SF-295 CNS
  GI50: 1790 nM
  TGI: 3360 nM
NCI-H460 lung
  GI50: 2040 nM
  TGI: 4030 nM
A549 NSCLC
  GI50: 1770 nM
  TGI: 3570 nM
SNB-75 CNS
  GI50: 1550 nM
  TGI: 3060 nM
HL-60(TB) leukemia
  GI50: 1960 nM
  TGI: 4790 nM
MOLT-4 leukemia
  GI50: 2200 nM
  TGI: 5350 nM
U251 CNS
  GI50: 1740 nM
  TGI: 3370 nM
OVCAR-4 ovarian
  GI50: 1830 nM
  TGI: 3560 nM
SF-539 CNS
  GI50: 1800 nM
  TGI: 3260 nM
CCRF-CEM leukemia
  GI50: 2140 nM
  TGI: 5930 nM
SNB-19 CNS
  GI50: 1930 nM
  TGI: 3730 nM
SN12C renal
  GI50: 1750 nM
  TGI: 3440 nM
UO-31 renal
  GI50: 1680 nM
  TGI: 3100 nM
SW-620 colon
  GI50: 1900 nM
  TGI: 3760 nM
MDA-MB-231 breast
  GI50: 1930 nM
  TGI: 3550 nM
ACHN renal
  GI50: 1950 nM
  TGI: 3420 nM
COLO 205 colon
  GI50: 1820 nM
  TGI: 3370 nM
PC-3 prostate
  GI50: 1640 nM
  TGI: 3120 nM
NCI-H522 lung
  GI50: 1690 nM
  TGI: 3300 nM
